Results taken from paper PMC12208494, “The zinc metalloprotein MigC impacts cell wall biogenesis through interactions with an essential Mur ligase in Acinetobacter baumannii” (PLOS Pathogens, 2025).

Biological target: T1, MurC (Acinetobacter baumannii, UniProt A3M9Y0)
T1 construct: full length, N-terminal 6xHis tag removed by TEV protease, E. coli BL21(DE3)
Experiment: HPLC of UMA formation
Format: biochemical
Details: 200 µM UDP-MurNAc, 1 mM L-alanine, 1 mM ATP, 2 mM MgCl2, pH 7.4, 37 °C

T1 sequence (A3M9Y0 whole entry): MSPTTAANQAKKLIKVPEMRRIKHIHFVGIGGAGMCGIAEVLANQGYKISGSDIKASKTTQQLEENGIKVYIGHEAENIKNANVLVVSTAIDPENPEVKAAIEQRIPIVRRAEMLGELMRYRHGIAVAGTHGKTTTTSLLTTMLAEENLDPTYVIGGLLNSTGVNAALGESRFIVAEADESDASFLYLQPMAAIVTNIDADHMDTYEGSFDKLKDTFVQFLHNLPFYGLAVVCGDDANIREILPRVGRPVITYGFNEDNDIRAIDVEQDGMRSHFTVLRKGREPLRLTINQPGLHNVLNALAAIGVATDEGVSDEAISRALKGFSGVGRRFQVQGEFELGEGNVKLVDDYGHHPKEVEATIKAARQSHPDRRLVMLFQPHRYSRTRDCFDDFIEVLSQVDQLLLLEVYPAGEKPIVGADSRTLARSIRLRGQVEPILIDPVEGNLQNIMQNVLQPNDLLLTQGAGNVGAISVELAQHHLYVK

## CC(=O)N[C@H]1[C@@H](OP(=O)(O)OP(=O)(O)OC[C@H]2O[C@@H](n3ccc(=O)[nH]c3=O)[C@H](O)[C@@H]2O)O[C@H](CO)[C@@H](O)[C@@H]1O[C@H](C)C(=O)O [UDP-MurNAc]
  HPLC of UMA formation: MurC and MurD activity were quantified by measuring MurC product, UMA
